Experimental data: paper PMC7531004, “Discovery of gramicidin A analogues with altered activities by multidimensional screening of a one-bead-one-compound library” (Nature Communications, 2020)
Where a SMILES comes first, the peptide text is derived from it. [ ]: non-standard residue; d: D form. The star is where a group is joined. NHCH2CH2OH = OCCN*; For = O=C*

Columns and labels:
[1] = H+/Na+ transport assay of bead-derived peptides (one-point); format: biochemical; parameters: key: relative activity; mean of two control wells = 1.00; settings: bead-derived peptide solution, EYPC/EYPG LUVs;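 also: relative to parent gramicidin A activity set to 1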
How it was run: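 Values are normalized fluorescence, with Triton X-100 defining 100% and untreated LUVs 0%, and the two control wells averaging 1.00. Vesicles carried 1.0 mM pyranine and included egg yolk phosphatidylglycerol. Peptides were incubated with them 30 min at room temperature.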

[2] = cell viability/%
How it was run: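 Peptide stocks diluted 250× in growth medium; P388 cells 1 × 10^4 cells/mL final; 37 °C, 5% CO2, 92 h. WST-1 + 1-methoxy PMS, 4 h, A415. Output: % viability.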

[3] = system: Streptococcus pyogenes SSI-9; test: Antibacterial activity assay of bead-derived peptides (three concentrations); format: cell-based; parameters: key: +++: inhibition by the 640-fold diluted peptide solution; ++: inhibition by the 160-fold diluted solution; +: inhibition by the 40-fold diluted solution; -: no inhibition; settings: S. pyogenes, bead-derived peptide solution, three concentrations
How it was run: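 First, each peptide stock was diluted 4- and 16-fold in DMSO; next, the three solutions were mixed with S. pyogenes SSI-9 suspension (2 × 10^5 CFU) in cation-adjusted Mueller Hinton Broth plus 5% laked horse blood; finally, plates stood 18 h at 37 °C before checking for grown-cell precipitation.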

Row | Compound | H+/Na+ transport activity normalized against the value of 1 (1.00) [1] | viability [2] | antibacterial activity [3]
1 | CNC(=O)C[C@@H](NC(=O)[C@H](Cc1c[nH]c2ccccc12)NC(=O)[C@H](NC(=O)[C@H](Cc1c[nH]c2ccccc12)NC(=O)[C@H](NC(=O)[C@H](Cc1c[nH]c2ccccc12)NC(=O)[C@H](NC(=O)[C@@H](NC(=O)[C@@H](CC(C)C)NC(=O)[C@H](C)NC(=O)[C@H](NC(=O)[C@H](C)NC(=O)CNC(=O)[C@@H](NC=O)C(C)C)C(C)C)C(C)C)C(C)C)C(C)C)C(C)C)C(=O)N[C@@H](Cc1c[nH]c2ccccc12)C(=O)NCCO [compound 2911] (For-VGA[dV]A[dL]V[dV]W[dV]W[dV]W[dD](NHMe)W-NHCH2CH2OH) | 1.16 | 100% | -
2 | CC(C)C[C@@H](NC(=O)[C@H](C)NC(=O)CNC(=O)[C@@H](NC=O)C(C)C)C(=O)N[C@@H](C)C(=O)N[C@H](CC(C)C)C(=O)N[C@H](C(=O)N[C@@H](C(=O)N[C@@H](Cc1c[nH]c2ccccc12)C(=O)N[C@@H](C(=O)N[C@@H](Cc1c[nH]c2ccccc12)C(=O)N[C@@H](C(=O)N[C@@H](Cc1c[nH]c2ccccc12)C(=O)N[C@H](CC(C)C)C(=O)N[C@@H](Cc1c[nH]c2ccccc12)C(=O)NCCO)C(C)C)[C@H](C)O)C(C)C)C(C)C [compound 2931] (For-VGA[dL]A[dL]V[dV]W[dT]W[dV]W[dL]W-NHCH2CH2OH) | 1.06 | 100% | +
3 | CNC(=O)C[C@@H](NC(=O)[C@@H](NC(=O)[C@@H](CC(C)C)NC(=O)[C@H](C)NC(=O)[C@@H](CC(C)C)NC(=O)[C@H](C)NC(=O)CNC(=O)[C@@H](NC=O)C(C)C)C(C)C)C(=O)N[C@@H](Cc1c[nH]c2ccccc12)C(=O)N[C@@H](C(=O)N[C@@H](Cc1c[nH]c2ccccc12)C(=O)N[C@H](CC(C)C)C(=O)N[C@@H](Cc1c[nH]c2ccccc12)C(=O)N[C@H](CC(C)C)C(=O)N[C@@H](Cc1c[nH]c2ccccc12)C(=O)NCCO)C(C)C [compound 2978] (For-VGA[dL]A[dL]V[dD](NHMe)W[dV]W[dL]W[dL]W-NHCH2CH2OH) | 1.18 | 100% | -
4 | CC(C)C[C@@H](NC(=O)[C@@H](NC(=O)[C@H](NC(=O)[C@H](C)NC(=O)[C@H](NC(=O)[C@H](C)NC(=O)CNC(=O)[C@@H](NC=O)C(C)C)[C@H](C)O)C(C)C)C(C)C)C(=O)N[C@@H](Cc1c[nH]c2ccccc12)C(=O)N[C@@H](C(=O)N[C@@H](Cc1c[nH]c2ccccc12)C(=O)N[C@@H](C(=O)N[C@@H](Cc1c[nH]c2ccccc12)C(=O)N[C@@H](C(=O)N[C@@H](Cc1c[nH]c2ccccc12)C(=O)NCCO)C(C)C)C(C)C)C(C)C [compound 3019] (For-VGA[dT]A[dV]V[dL]W[dV]W[dV]W[dV]W-NHCH2CH2OH) | 1.12 | 100% | -
5 | CC(C)C[C@@H](NC(=O)[C@H](C)NC(=O)[C@H](NC(=O)[C@H](C)NC(=O)CNC(=O)[C@@H](NC=O)C(C)C)[C@H](C)O)C(=O)N[C@H](C(=O)N[C@H](CC(C)C)C(=O)N[C@@H](Cc1c[nH]c2ccccc12)C(=O)N[C@@H](C(=O)N[C@@H](Cc1c[nH]c2ccccc12)C(=O)N[C@H](CC(C)C)C(=O)N[C@@H](Cc1c[nH]c2ccccc12)C(=O)N[C@@H](C(=O)N[C@@H](Cc1c[nH]c2ccccc12)C(=O)NCCO)[C@H](C)O)C(C)C)C(C)C [compound 3130] (For-VGA[dT]A[dL]V[dL]W[dV]W[dL]W[dT]W-NHCH2CH2OH) | 1.05 | 100% | -
6 | CC(C)C[C@@H](NC(=O)[C@H](Cc1c[nH]c2ccccc12)NC(=O)[C@H](NC(=O)[C@H](Cc1c[nH]c2ccccc12)NC(=O)[C@@H](CC(C)C)NC(=O)[C@@H](NC(=O)[C@H](NC(=O)[C@H](C)NC(=O)[C@H](NC(=O)[C@H](C)NC(=O)CNC(=O)[C@@H](NC=O)C(C)C)C(C)C)C(C)C)C(C)C)[C@H](C)O)C(=O)N[C@@H](Cc1c[nH]c2ccccc12)C(=O)N[C@@H](C(=O)N[C@@H](Cc1c[nH]c2ccccc12)C(=O)NCCO)C(C)C [compound 3161] (For-VGA[dV]A[dV]V[dL]W[dT]W[dL]W[dV]W-NHCH2CH2OH) | 1.00 | 100% | -
7 | CC(C)C[C@@H](NC(=O)[C@H](C)NC(=O)[C@H](NC(=O)[C@H](C)NC(=O)CNC(=O)[C@@H](NC=O)C(C)C)C(C)C)C(=O)N[C@H](C(=O)N[C@H](CC(C)C)C(=O)N[C@@H](Cc1c[nH]c2ccccc12)C(=O)N[C@@H](C(=O)N[C@@H](Cc1c[nH]c2ccccc12)C(=O)N[C@@H](C(=O)N[C@@H](Cc1c[nH]c2ccccc12)C(=O)N[C@H](CC(C)C)C(=O)N[C@@H](Cc1c[nH]c2ccccc12)C(=O)NCCO)[C@H](C)O)C(C)C)C(C)C [compound 3205] (For-VGA[dV]A[dL]V[dL]W[dV]W[dT]W[dL]W-NHCH2CH2OH) | 1.16 | 90.2% | -
8 | CC(C)C[C@@H](NC(=O)[C@H](C)NC(=O)[C@H](NC(=O)[C@H](C)NC(=O)CNC(=O)[C@@H](NC=O)C(C)C)C(C)C)C(=O)N[C@H](C(=O)N[C@@H](C(=O)N[C@@H](Cc1c[nH]c2ccccc12)C(=O)N[C@@H](C(=O)N[C@@H](Cc1c[nH]c2ccccc12)C(=O)N[C@H](CC(C)C)C(=O)N[C@@H](Cc1c[nH]c2ccccc12)C(=O)N[C@@H](C(=O)N[C@@H](Cc1c[nH]c2ccccc12)C(=O)NCCO)C(C)C)C(C)C)[C@H](C)O)C(C)C [compound 3206] (For-VGA[dV]A[dL]V[dT]W[dV]W[dL]W[dV]W-NHCH2CH2OH) | 1.19 | 97.4% | -
9 | CC(C)C[C@@H](NC(=O)[C@H](Cc1c[nH]c2ccccc12)NC(=O)[C@@H](CC(C)C)NC(=O)[C@H](Cc1c[nH]c2ccccc12)NC(=O)[C@H](NC(=O)[C@H](Cc1c[nH]c2ccccc12)NC(=O)[C@H](NC(=O)[C@@H](NC(=O)[C@H](NC(=O)[C@H](C)NC(=O)[C@H](NC(=O)[C@H](C)NC(=O)CNC(=O)[C@@H](NC=O)C(C)C)[C@H](C)O)C(C)C)C(C)C)C(C)C)[C@H](C)O)C(=O)N[C@@H](Cc1c[nH]c2ccccc12)C(=O)NCCO [compound 3226] (For-VGA[dT]A[dV]V[dV]W[dT]W[dL]W[dL]W-NHCH2CH2OH) | 1.06 | 87.6% | -
10 | CC(C)C[C@@H](NC(=O)[C@H](C)NC(=O)CNC(=O)[C@@H](NC=O)C(C)C)C(=O)N[C@@H](C)C(=O)N[C@H](CC(C)C)C(=O)N[C@H](C(=O)N[C@H](CC(C)C)C(=O)N[C@@H](Cc1c[nH]c2ccccc12)C(=O)N[C@@H](C(=O)N[C@@H](Cc1c[nH]c2ccccc12)C(=O)N[C@@H](C(=O)N[C@@H](Cc1c[nH]c2ccccc12)C(=O)N[C@H](CC(C)C)C(=O)N[C@@H](Cc1c[nH]c2ccccc12)C(=O)NCCO)[C@H](C)O)[C@H](C)O)C(C)C [compound 3244] (For-VGA[dL]A[dL]V[dL]W[dT]W[dT]W[dL]W-NHCH2CH2OH) | 1.03 | 100% | -
11 | CC(C)C[C@@H](NC(=O)[C@H](C)NC(=O)CNC(=O)[C@@H](NC=O)C(C)C)C(=O)N[C@@H](C)C(=O)N[C@@H](C(=O)N[C@H](C(=O)N[C@H](CC(C)C)C(=O)N[C@@H](Cc1c[nH]c2ccccc12)C(=O)N[C@H](CC(C)C)C(=O)N[C@@H](Cc1c[nH]c2ccccc12)C(=O)N[C@@H](C(=O)N[C@@H](Cc1c[nH]c2ccccc12)C(=O)N[C@H](CC(C)C)C(=O)N[C@@H](Cc1c[nH]c2ccccc12)C(=O)NCCO)C(C)C)C(C)C)[C@H](C)O [compound 3247] (For-VGA[dL]A[dT]V[dL]W[dL]W[dV]W[dL]W-NHCH2CH2OH) | 1.24 | 99.5% | -
12 | CC(C)C[C@@H](NC(=O)[C@H](C)NC(=O)[C@H](NC(=O)[C@H](C)NC(=O)CNC(=O)[C@@H](NC=O)C(C)C)C(C)C)C(=O)N[C@H](C(=O)N[C@H](CC(C)C)C(=O)N[C@@H](Cc1c[nH]c2ccccc12)C(=O)N[C@H](CC(C)C)C(=O)N[C@@H](Cc1c[nH]c2ccccc12)C(=O)N[C@@H](C(=O)N[C@@H](Cc1c[nH]c2ccccc12)C(=O)N[C@H](CC(C)C)C(=O)N[C@@H](Cc1c[nH]c2ccccc12)C(=O)NCCO)C(C)C)C(C)C [compound 3255] (For-VGA[dV]A[dL]V[dL]W[dL]W[dV]W[dL]W-NHCH2CH2OH) | 1.13 | 4.6% | +
13 | CC(C)C[C@@H](NC(=O)[C@H](C)NC(=O)[C@H](NC(=O)[C@H](C)NC(=O)CNC(=O)[C@@H](NC=O)C(C)C)C(C)C)C(=O)N[C@H](C(=O)N[C@H](CC(C)C)C(=O)N[C@@H](Cc1c[nH]c2ccccc12)C(=O)N[C@@H](C(=O)N[C@@H](Cc1c[nH]c2ccccc12)C(=O)N[C@H](CC(C)C)C(=O)N[C@@H](Cc1c[nH]c2ccccc12)C(=O)N[C@@H](C(=O)N[C@@H](Cc1c[nH]c2ccccc12)C(=O)NCCO)C(C)C)[C@H](C)O)C(C)C [compound 3260] (For-VGA[dV]A[dL]V[dL]W[dT]W[dL]W[dV]W-NHCH2CH2OH) | 1.10 | 100% | +
